{"source": "paper PMC11018795", "about": "“The regulatory relationship between NAMPT and PD-L1 in cancer and identification of a dual-targeting inhibitor” (EMBO Molecular Medicine, 2024)", "key": {"[1]": {"test_system": "LLC cells", "test": "Apoptosis assay (Annexin V/PI), LLC", "format": "cell-based, mouse", "description": "The cells are treated with the compounds. After 48–72 h, the cells were harvested and washed twice with cold PBS. The cells were then stained with Annexin V/propidium iodide (PI) (BD Biosciences) and examined using a NovoCyte Flow Cytometer (ACEA Biosciences). Data were analyzed using NovoExpress software (ACEA Biosciences)."}, "[2]": {"target": "NAMPT (Homo sapiens, UniProt P43490)", "sequence (P43490 whole entry)": "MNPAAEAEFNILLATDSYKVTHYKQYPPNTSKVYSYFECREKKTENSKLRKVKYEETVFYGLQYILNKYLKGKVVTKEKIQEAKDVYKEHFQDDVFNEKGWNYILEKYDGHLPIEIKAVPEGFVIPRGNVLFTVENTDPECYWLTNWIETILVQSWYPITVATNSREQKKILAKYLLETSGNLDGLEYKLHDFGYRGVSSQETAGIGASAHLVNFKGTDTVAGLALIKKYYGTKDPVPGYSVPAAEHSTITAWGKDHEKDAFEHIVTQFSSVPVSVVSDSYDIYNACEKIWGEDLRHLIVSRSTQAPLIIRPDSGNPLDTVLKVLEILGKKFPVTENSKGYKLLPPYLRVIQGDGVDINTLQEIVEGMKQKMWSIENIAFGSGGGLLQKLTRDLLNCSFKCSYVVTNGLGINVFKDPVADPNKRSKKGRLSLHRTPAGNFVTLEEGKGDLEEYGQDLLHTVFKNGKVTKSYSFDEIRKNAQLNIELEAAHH", "test": "Cellular thermal shift assay (CETSA), NAMPT, A2780 cells", "format": "binding", "set-up": "endogenous in cells; host or cells: A2780", "details": "for Relative band intensity (NAMPT): LZFPN-90 20 nM", "description": "(§1) The cells were resuspended in 1× PBS supplemented with protease inhibitors (Roche) and then divided into strip tubes for 30 min. The tubes were centrifuged at 15,000× g at 4 °C for 15 min. After centrifugation, the supernatant was divided into DMSO and LZFPN-90 (20 nM) groups, and incubated at room temperature for 30 min. According to standard procedures (38 °C, 42 °C, 46 °C, 50 °C, 54 °C, 58 °C, 62 °C, 66 °C), each temperature group was heated for 3 min, incubated at room temperature for 3 min. Then centrifuged at 20,000× g for 25 min, the supernatant was collected, 1× loading buffer was added, the mixture was heated in a metal bath at 95 °C for 10 min, and the amount of non-denatured protein per sample was quantified by western blotting."}, "[3]": {"target": "T1, PD-L1 (Homo sapiens, UniProt Q9NZQ7)", "T1 construct": "endogenous in cells; host or cells: A2780", "T1 sequence (Q9NZQ7 19-290)": "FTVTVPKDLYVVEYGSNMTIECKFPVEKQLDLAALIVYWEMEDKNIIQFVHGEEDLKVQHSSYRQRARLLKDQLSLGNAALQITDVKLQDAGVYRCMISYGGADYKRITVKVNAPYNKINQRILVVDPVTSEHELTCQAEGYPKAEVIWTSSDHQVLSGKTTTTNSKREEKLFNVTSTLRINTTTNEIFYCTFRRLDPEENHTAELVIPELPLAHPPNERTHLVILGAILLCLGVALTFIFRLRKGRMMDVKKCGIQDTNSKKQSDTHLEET", "test": "Cellular thermal shift assay (CETSA), PD-L1, A2780 cells", "format": "binding", "details": "for Relative band intensity (PD-L1): LZFPN-90 20 nM", "description": "as §1"}, "[4]": {"test_system": "LLC OE NAMPT/PD-L1 tumors", "test": "LLC OE NAMPT/PD-L1 tumor-bearing C57BL/6 mice", "format": "in vivo, mouse", "details": "20 mg/kg i.p."}, "[5]": {"test_system": "PC9 cells", "test": "MTT assay 48 h, PC9", "format": "cell-based, human", "description": "(§2) Cells (5 × 10^3/well) were seeded into a 96-well plate and cultured at 37 °C in a 5% CO2 incubator. […] At the final time point, 10 μl MTT solution (5 mg/ml, Sigma, Burlington, MA, USA) was added to each well and incubated for an additional 4 h at 37 °C in a 5% CO2 incubator. Then,100 μl of DMSO was added to each well and mixed thoroughly. Optical density was measured at 492 nm using a microplate reader (Molecular Devices, San Jose, CA, USA)."}, "[6]": {"test_system": "LLC Vector cells", "test": "Cell viability 72 h, LLC Vector (Fig 4C)", "format": "cell-based, mouse", "description": "as §2, with “In vitro cell viability was determined using a Cell Counting Kit-8 (MCE) assay. Cells (5 × 10^3/well) were seeded in 96-well culture plates. After 24 h, they were incubated with various concentrations of the test compounds for 48–72 h at 37 °C in a 5% CO2 incubator. Next, 10% of the CCK-8 solution was added to each well, and the plates were incubated for an additional 4 h at 37 °C. The optical density of each well was measured at 450 nm using a multimode plate reader (Molecular Devices, San Jose, CA, USA). Cells” for “Cells”"}, "[7]": {"test_system": "A20 tumors", "test": "A20 tumor-bearing Balb/c nude mice", "format": "in vivo, mouse", "details": "20 mg/kg i.p., Fig 6E", "description": "The 4–6 weeks-old Balb/c mice and Balb/c nude mice were maintained in a specific pathogen-free (SPF) facility. A20 cells (5 × 10^6 cells in 0.2 ml phosphate-buffered saline) were subcutaneously injected into the right armpit of Balb/c mice and Balb/c nude mice. Tumor volume was measured using calipers every 2 days and calculated using the following formula: (long diameter) × (short diameter)^2/2. […] Balb/c nude mice were treated with LZFPN-90 (20 mg/kg). After 12 days of administration, the animals were anesthetized, and tumors were excised. Some fresh tumor tissues were subjected to immune cell isolation. Tissues were either fixed in 4% formalin or stored at −80 °C until further analysis."}, "[8]": {"test_system": "HCT-116 cells", "test": "Clonogenic assay, HCT-116", "format": "cell-based, human", "details": "9 days", "description": "Cells (3 × 10^2/well) were plated in a six-well plate and the culture medium was replaced every 2 days. After culturing for 7–10 d, the cells were fixed with 4% paraformaldehyde for 15 min, stained with 0.1% crystal violet for 30 min, and imaged and counted."}, "[9]": {"test": "In vitro metabolic stability in human liver microsome", "format": "in vitro ADME", "description": "2) Pharmacokinetics: Human liver microsomal stability assay is widely adopted in the preliminary evaluation for pharmacokinetic properties, reflecting the potential metabolic stability of indicated compounds in the human body. Thus, considering the […]\nactivity of LZFPN-90, it was further evaluated for potential metabolism in human liver microsome. The intrinsic clearance for LZFPN-90 in human liver microsome is 0.035 mL/min/mg. According to the classical criteria (Low clearance: CLint < 0.01 mL/min/mg; medium clearance: 0.01 ≤ CLint ≤ 0.1 mL/min/mg; high clearance: CLint > […]\nindicating its potential for further development. […]\nTable 1. In Vitro Metabolic Stability of LZFPN-90 in Human Liver Microsome T1/2 CLint, in vitro Remaining\n(min)a (mL/min/mg)b (T = 60 min) […]\nb CLint: intrinsic clearance, CLint(mic)=0.693/T1/2/mg microsomal protein/mL\n(1 picture or pasted object on this page, not shown here)"}}, "note": "Several values for one entry are separate records, joined by “and”; a condition that tells them apart may be missing. Identical values can stand only once."}
{"smiles": "CCN(CC)CCCOc1cccc(-c2cccc3c2CCN3C(=O)c2ncc(CNC(=NC#N)Nc3ccncc3)s2)c1", "note": "[LZFPN-90]", "values": [{"measurement": "Apoptotic cells (sum of both Annexin-positive quadrants)", "setting": "[1]; LZ90 15 nM", "result": "5.3 and 5.6 and 7.76"}, {"measurement": "Apoptotic cells (sum of both Annexin-positive quadrants)", "setting": "[1]; LZ90 60 nM", "result": "15.11 and 14.38 and 15.17"}, {"measurement": "Apoptotic cells (sum of both Annexin-positive quadrants)", "setting": "[1]; LZ90 240 nM", "result": "25.37 and 24.61 and 22.88"}, {"measurement": "thermal stability of NAMPT", "setting": "[2]; LZFPN-90 20 nM vs blank group", "result": "the stability of NAMPT and PD-L1 increased"}, {"measurement": "Relative band intensity (NAMPT)", "setting": "[2]; 38 ℃", "result": "1.21 and 1.06"}, {"measurement": "Relative band intensity (NAMPT)", "setting": "[2]; 42 ℃", "result": "1.16 and 1.1"}, {"measurement": "Relative band intensity (NAMPT)", "setting": "[2]; 46 ℃", "result": "1.06 and 1.08"}, {"measurement": "Relative band intensity (NAMPT)", "setting": "[2]; 50 ℃", "result": "1.08 and 1.02"}, {"measurement": "Relative band intensity (NAMPT)", "setting": "[2]; 54 ℃", "result": "1.25 and 1.19"}, {"measurement": "Relative band intensity (NAMPT)", "setting": "[2]; 58 ℃", "result": "1.21 and 1.16"}, {"measurement": "Relative band intensity (NAMPT)", "setting": "[2]; 62 ℃", "result": "1.18 and 1.13"}, {"measurement": "Relative band intensity (NAMPT)", "setting": "[2]; 66 ℃", "result": "0.52 and 0.48"}, {"measurement": "thermal stability of PD-L1", "setting": "[3]; LZFPN-90 20 nM vs blank group", "result": "the stability of NAMPT and PD-L1 increased"}, {"measurement": "Relative band intensity (PD-L1)", "setting": "[3]; 38 ℃", "result": "0.8 and 0.83"}, {"measurement": "Relative band intensity (PD-L1)", "setting": "[3]; 42 ℃", "result": "0.79 and 0.8"}, {"measurement": "Relative band intensity (PD-L1)", "setting": "[3]; 46 ℃", "result": "0.86 and 0.82"}, {"measurement": "Relative band intensity (PD-L1)", "setting": "[3]; 50 ℃", "result": "0.7 and 0.76"}, {"measurement": "Relative band intensity (PD-L1)", "setting": "[3]; 54 ℃", "result": "0.56 and 0.61"}, {"measurement": "Relative band intensity (PD-L1)", "setting": "[3]; 58 ℃", "result": "1 and 1.07"}, {"measurement": "Relative band intensity (PD-L1)", "setting": "[3]; 62 ℃", "result": "0.96 and 0.92"}, {"measurement": "Relative band intensity (PD-L1)", "setting": "[3]; 66 ℃", "result": "0.36 and 0.31"}, {"measurement": "TIR / tumor growth inhibition (TGI) rate at endpoint", "setting": "[4]; 14 days, Fig 7B", "result": 76.01, "unit": "%"}, {"measurement": "TIR (relative tumor weight)", "setting": "[4]; LLC OE NAMPT/PD-L1, Fig 7G", "result": 76.0, "unit": "%"}, {"measurement": "effect on the organs of mice", "setting": "[4]; LLC OE NAMPT/PD-L1 model", "result": "minor effect on the organs of mice"}, {"measurement": "Relative inhibition (敏感性)", "setting": "[5]", "result": 0.29}, {"measurement": "Relative viability", "setting": "[6]; LZ90 0.25 (nM), 0 = 100", "result": "89.7901 and 87.9705 and 96.555"}, {"measurement": "Relative viability", "setting": "[6]; LZ90 1", "result": "87.3413 and 95.1235 and 101.277"}, {"measurement": "Relative viability", "setting": "[6]; LZ90 4", "result": "85.618 and 92.9893 and 92.8571"}, {"measurement": "Relative viability", "setting": "[6]; LZ90 16", "result": "83.9984 and 83.5338 and 75.7769"}, {"measurement": "Relative viability", "setting": "[6]; LZ90 64", "result": "79.4506 and 87.9576 and 68.4293"}, {"measurement": "Relative viability", "setting": "[6]; LZ90 256", "result": "70.355 and 68.0766 and 71.9586"}, {"measurement": "TIR (relative tumor weight)", "setting": "[7]", "result": 46.2, "unit": "%"}, {"measurement": "Colony formation relative to Ctrl", "setting": "[8]; LZ90-H (2 nM)", "result": 0.17}, {"measurement": "Colony formation relative to Ctrl", "setting": "[8]; LZ90-L (0.5 nM), Ctrl = 1", "result": 0.6}, {"measurement": "Colony formation relative to Ctrl", "setting": "[8]; LZ90-M (1 nM)", "result": 0.26}, {"measurement": "stability in human liver microsome", "setting": "[9]; criteria: low CLint < 0.01, medium 0.01-0.1, high > 0.1 mL/min/mg", "result": "moderate stability in human liver microsome"}, {"measurement": "Remaining (T = 60 min)", "setting": "[9]; human liver microsome", "result": 36.8, "unit": "%"}, {"measurement": "half-life", "setting": "[9]; liver microsomes, human liver microsome", "result": 39.6, "unit": "min"}, {"measurement": "microsomal CLint", "setting": "[9]; liver microsomes, human liver microsome, read-out: CLint, in vitro (intrinsic clearance)", "result": 35, "unit": "µL/min/mg"}]}
